Activity calls are given as the source filed them. The calls are words filed in the database; no cut-off is given here.
Legend:
[1] = Binding affinity bovine carbonic anhydrase; design: species or system Bos taurus
[2] = Binding affinity to HSP90 ATPase domain by TR-FRET assay
[3] = Binding affinity HSP90 ATPase domain assessed as broadening of compound signals using [13C]labeled compound at 200 uM by NMR spectroscopy
[4] = Binding affinity to HSP90 ATPase domain assessed as broadening of compound signals using [13C]labeled compound at 20 uM by NMR spectroscopy
[5] = Binding affinity HSP90 ATPase domain at 100 uM by STD competition spectroscopy
[6] = Binding affinity bovine carbonic anhydrase by surface plasma resonance method; design: species or system Bos taurus
Bos taurus = species: Bos taurus; assay: Binding affinity bovine carbonic anhydrase assessed as broadening of compound signals using [13C]labeled compound at 20 uM by NMR spectroscopy

## CCN1CCCC1CNC(=O)c1cc(S(N)(=O)=O)ccc1OC (centres undefined) [SULPIRIDE]
[1]
  Ki: 48 µM

## Cc1cc(-c2cccc3ccccc23)nc(N)n1
[2]
  Ki: 5 µM
[3]
  Activity: Active

## COc1ccc(Cl)cc1-c1cc(C)nc(N)n1
[2]
  Ki: 11 µM
[4]
  Activity: Dose-dependent effect
[5]
  Activity: Active

## Cc1cc(-c2ccccc2)nc(N)n1
[2]
  Ki: 14 µM

## NS(=O)(=O)c1ccc(F)cc1
[6]
  Kd: 1000 nM
Bos taurus
  Activity: Active

— ChEMBL document CHEMBL2157881, “Labeled Ligand Displacement: Extending NMR-Based Screening of Protein Targets” (ACS Med Chem Lett, 2010)
